Results on 7 compounds are retold here after patent US8399712B2 (priority 2010, dated 2013).

A short description of data set [1]: Relative humidity stability, saturated salt solutions at ambient temperature, XRPD. It counts as physicochemical. The following applies: for Dissociation by XRPD: 75, 94, or 98% RH after four weeks. An excerpt:
Upon completion of the duration allowed, the samples were immediately analyzed by XRPD.

Data set [2] in a line: Slurrying in water, resulting solid form. Format: physicochemical. The conditions noted are these: for Behaviour upon slurrying in water: three days.
The next data set concerns hyperglycemic rats. The conditions noted are these: cited from earlier work.
Another data set concerns cancer cell lines. The conditions noted are these: in vitro; cited from earlier work.
The conditions of data set [3]: literature (Lopez-Nicolas 2009); cited from earlier work.
For data set [4] the following is noted: literature; cited from earlier work.
Data set [5] is classed as physicochemical. The following applies: slurrying in water at ambient, after 5 minutes.
The nature of data set [6]: Attempted intrinsic dissolution of cocrystal 3 in 900 mL water. Format: physicochemical. The following applies: 900 mL water at ambient conditions, after 30 minutes. On the procedure:
Intrinsic dissolution in 900 mL water at ambient conditions was also attempted. […] Therefore, a concentration vs. time and intrinsic dissolution rate value were unobtainable at these conditions.

As to `Cn1c(=O)c2c(ncn2C)n(C)c1=O` [caffeine, reference compound], the “Results (form by XRPD)” value is “caffeine anhydrous” in data set [1] (75% RH, 1 week); “caffeine anhydrous” in data set [1] (75% RH, 4 weeks); “caffeine anhydrous” in data set [1] (75% RH, 1 day); “caffeine anhydrous” in data set [1] (75% RH, 3 days); “caffeine hydrate” in data set [1] (94% RH, 1 week (7 days)); “caffeine hydrate” in data set [1] (94% RH, 4 weeks). In addition, the “Results (form by XRPD)” value in data set [1] (94% RH, 1 day) is given as “caffeine anhydrous”; in data set [1] (94% RH, 3 days), “caffeine anhydrous/caffeine hydrate”; in data set [1] (98% RH, 1 week) it was “caffeine hydrate”; in data set [1] (98% RH, 4 weeks), “caffeine hydrate”; in data set [1] (98% RH, 1 day), “caffeine hydrate”; in data set [1] (98% RH, 3 days), “caffeine hydrate”. The “Conversion to hydrate” value is “does not display signs of conversion” in data set [1] (75% RH, up to four weeks); “between one and three days at 94% RH partial conversion” in data set [1] (94% RH); “converts to caffeine hydrate in less than one day” in data set [1] (98% RH).

Regarding `COc1cc(/C=C/c2ccc(O)cc2)cc(OC)c1.Cn1c(=O)c2c(ncn2C)n(C)c1=O` [cocrystal 1 (Form I), pterostilbene:caffeine], the “Results (form by XRPD)” value in data set [1] (75% RH, 1 week) was “cocrystal 1 (Form I), no caffeine hydrate”; in data set [1] (75% RH, 1 week, additional stress at 98% RH) it was “cocrystal 1 (Form I), no caffeine hydrate”; in data set [1] (75% RH, 4 weeks), “cocrystal 1 (Form I), no caffeine hydrate”; in data set [1] (75% RH, 1 day), “cocrystal 1 (Form I), no caffeine hydrate”; in data set [1] (75% RH, 1 day, additional stress at 98% RH) it was “cocrystal 1 (Form I), no caffeine hydrate”; in data set [1] (75% RH, 3 days), “cocrystal 1 (Form I), no caffeine hydrate”. The “Results (form by XRPD)” value in data set [1] (94% RH, 1 week (7 days)) was “cocrystal 1 (Form I), no caffeine hydrate”; in data set [1] (94% RH, 4 weeks) it was “cocrystal 1 (Form I), no caffeine hydrate”; in data set [1] (94% RH, 1 day), “cocrystal 1 (Form I), no caffeine hydrate”; in data set [1] (94% RH, 3 days) it was “cocrystal 1 (Form I), no caffeine hydrate”; in data set [1] (94% RH, 7 days, additional stress at 98% RH, 4 weeks), “cocrystal 1 (Form I), no caffeine hydrate”. The “Results (form after stress)” value in data set [2] (slurry, 2 days) was “cocrystal 1 (Form I), no caffeine hydrate”. In data set [2], the “Behaviour upon slurrying in water” value is “precipitation of pterostilbene”.

`COc1cc(/C=C/c2ccc(O)cc2)cc(OC)c1.Cn1c(=O)c2c(ncn2C)n(C)c1=O` [cocrystal 1, pterostilbene:caffeine]: the “Dissociation by XRPD” value in data set [1] is reported as “no dissociation”.

Consider `CN(C)C(=N)N=C(N)N` [metformin], for which, in the data set with hyperglycemic rats, the “Decrease of plasma glucose levels” value is 48%.

As for `COc1cc(/C=C/c2ccc(O)cc2)cc(OC)c1` [pterostilbene, trans-3,5-dimethoxy-4′-hydroxystilbene], in the data set with cancer cell lines, the “Cytotoxic activity against cancer cell lines” value was “demonstrated cytotoxic activity”. In addition, in data set [3], the Solubility in water entry is reported as “poor solubility in water”. Moreover, in data set [4], the Bioavailability entry is on record as “poor bioavailability”.

Take “pterostilbene:carbamazepine [cocrystal 2]”: the “Results (form by XRPD)” value is reported as “cocrystal 2, no carbamazepine dihydrate” in data set [1] (75% RH, 1 week); “cocrystal 2, no carbamazepine dihydrate” in data set [1] (75% RH, 4 weeks); “cocrystal 2, no carbamazepine dihydrate” in data set [1] (75% RH, 1 day); “cocrystal 2, no carbamazepine dihydrate” in data set [1] (75% RH, 3 days); “cocrystal 2, no carbamazepine dihydrate” in data set [1] (94% RH, 1 week (7 days)); “cocrystal 2, no carbamazepine dihydrate” in data set [1] (94% RH, 4 weeks). Also, the “Results (form by XRPD)” value in data set [1] (94% RH, 1 day) is “cocrystal 2, no carbamazepine dihydrate”; in data set [1] (94% RH, 3 days), “cocrystal 2, no carbamazepine dihydrate”; in data set [1] (98% RH, 1 week) it was “cocrystal 2, no carbamazepine dihydrate”; in data set [1] (98% RH, 4 weeks), “cocrystal 2, no carbamazepine dihydrate”; in data set [1] (98% RH, 1 day) it was “cocrystal 2, no carbamazepine dihydrate”; in data set [1] (98% RH, 3 days), “cocrystal 2, no carbamazepine dihydrate”. Besides, the “Behaviour upon slurrying in water” value in data set [2] is “stable”.

Consider “pterostilbene:glutaric acid [cocrystal 3]”, for which the “Dissociation by XRPD” value in data set [1] is on record as “no dissociation”. Moreover, the “XRPD result of attempted powder dissolution” value in data set [5] is reported as “crystalline pterostilbene”. Also, the “XRPD result of attempted intrinsic dissolution” value in data set [6] was “crystalline pterostilbene”.
